Data reported in patent publication US20100298141A1, “SUBSTITUTED PYRIDINE N-OXIDE HERBICIDES” (E. I. DU PONT DE NEMOURS AND COMPANY, priority 2007, published 2010).

How the values were obtained:
[1] = tested on: soybean; test: Test C pre-/postemergence test; type: in vivo, Glycine max
In short: (§1)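 Compounds in a non-phytotoxic solvent with surfactant applied preemergence to seeded pots and, at the same time, postemergence to plants 2–18 cm tall (1- to 4-leaf stage). Paddy tests: pots flooded to 3 cm, compound applied into the water, depth held throughout.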

[2] = tested on: morningglory; test: Test C pre-/postemergence test; type: in vivo, Ipomoea coccinea
In short: as §1

[3] = tested on: Surinam grass; test: Test C pre-/postemergence test; type: in vivo, Brachiaria decumbens; settings: for Surinam Grass plant response rating: preemergence, scale 0 (no effect) to 100 (complete control)
In short: as §1

[4] = tested on: lambsquarters; test: Test C pre-/postemergence test; type: in vivo, Chenopodium album
In short: as §1

[5] = tested on: rice; test: Test C flooded paddy test; type: in vivo, Oryza sativa; settings: Flood
In short: (§2)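 Ratings were visual and made relative to untreated controls after 13 to 15 greenhouse days.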

[6] = tested on: johnsongrass; test: Test C pre-/postemergence test; type: in vivo, Sorghum halepense
In short: as §1

[7] = tested on: downy brome; test: Test C pre-/postemergence test; type: in vivo, Bromus tectorum
In short: as §1

[8] = tested on: barnyardgrass; test: Test C flooded paddy test; type: in vivo, Echinochloa crus-galli; settings: Flood
In short: as §2

[9] = tested on: corn; test: Test A pre-/postemergence greenhouse test; type: in vivo, Zea mays; settings: for Corn plant response rating: 0 to 100 scale
In short: (§3)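 Sowing in loam/sand; same-day pre (directed soil spray) and post (foliar, 1–2 leaf, 2–10 cm) treatment with surfactant-containing non-phytotoxic solvent formulation; ~10 days in greenhouse; eye-scored injury against untreated plants.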

[10] = tested on: crabgrass; test: Test C pre-/postemergence test; type: in vivo, Digitaria sanguinalis
In short: as §1

[11] = tested on: wheat; test: Test A pre-/postemergence greenhouse test; type: in vivo, Triticum aestivum; settings: for Wheat plant response rating: 0 to 100 scale
In short: as §3

[12] = tested on: velvetleaf; test: Test A pre-/postemergence greenhouse test; type: in vivo, Abutilon theophrasti; settings: for Velvetleaf plant response rating: 0 to 100 scale
In short: as §3

[13] = tested on: pigweed; test: Test C pre-/postemergence test; type: in vivo, Amaranthus retroflexus
In short: as §1

[14] = tested on: bermudagrass; test: Test C pre-/postemergence test; type: in vivo, Cynodon dactylon
In short: as §1

[15] = tested on: catchweed bedstraw; test: Test C pre-/postemergence test; type: in vivo, Galium aparine
Excerpt: Seeds of plant species selected from blackgrass (Alopecurus myosuroides), downy brome (Bromus tectorum), green foxtail (Setaria viridis), Italian ryegrass (Lolium multiflorum), wheat (Triticum aestivum), wild oat (Avena fatua), catchweed bedstraw (Galium aparine), Russian thistle (Salsola kali), […] (Cynodon dactylon), Surinam grass (Brachiaria decumbens), cocklebur (Xanthium strumarium), corn (Zea mays), crabgrass (Digitaria sanguinalis), woolly cupgrass (Eriochloa villosa), giant foxtail (Setaria faberii), Goosegrass (Eleusin indica), johnsongrass (Sorghum halepense), kochia (Kochia scoparia), lambsquarters (Chenopodium album), morningglory (Ipomoea coccinea), eastern black nightshade (Solanum ptycanthum), yellow nutsedge (Cyperus esculentus), pigweed (Amaranthus retroflexus), common ragweed (Ambrosia elation), soybean (Glycine max), common (oilseed) sunflower (Helianthus annuus), and velvetleaf (Abutilon theophrasti) were planted and treated preemergence with test chemicals formulated in a non-phytotoxic solvent mixture which included a surfactant. At the same time, plants selected from these crop and weed species and also winter barley (Hordeum vulgare), canarygrass (Phalaris minor), and chickweed (Stellaria media) were treated with postemergence applications of some of the test chemicals formulated in the same manner. Plants ranged in height from 2 to 18 cm (1- to 4-leaf stage) for postemergence treatments. […] At time of treatment, test pots were flooded to 3 cm above the soil surface, treated by application of test compounds directly to the paddy water, and then maintained at that water depth for the duration of the test. […] A dash (-) response means no test result.

[16] = tested on: giant foxtail; test: Test A pre-/postemergence greenhouse test; type: in vivo, Setaria faberi; settings: for Foxtail, Giant plant response rating: 0 to 100 scale
In short: as §3

[17] = tested on: giant foxtail; test: Test C pre-/postemergence test; type: in vivo, Setaria faberii
In short: as §1

[18] = 31 g ai/ha, Preemergence, scale 0 to 100
[19] = 62 g ai/ha, preemergence, scale 0 (no effect) to 100 (complete control)
[20] = preemergence, 125 g ai/ha, scale 0 (no effect) to 100 (complete control)
[21] = 31 g ai/ha, scale 0 to 100 (0 no effect, 100 complete control)
[22] = 62 g ai/ha, scale 0 to 100, 0 no effect, 100 complete control, 13 to 15 days
[23] = 125 g ai/ha, scale 0 to 100, 0 no effect, 100 complete control, 13 to 15 days
[24] = 250 g ai/ha, scale 0 to 100 (0 no effect, 100 complete control)
[25] = Postemergence, 125 g ai/ha, 0 is no effect, 100 is complete control
[26] = Postemergence, 500 g ai/ha, 0 is no effect, 100 is complete control
[27] = Preemergence, 125 g ai/ha, 0 no effect, 100 complete control
[28] = Preemergence, 500 g ai/ha, 0 to 100 scale where 0 is no effect and 100 is complete control

Q: Which “Soybean plant response rating” value [1, 18] does the source give for `Cc1cc[n+]([O-])c(S(=O)(=O)C(C)c2c(C(F)(F)F)nn(C)c2Cl)c1` (racemic) [Compound 14] here?
A: 0

Q: What about the “Soybean plant response rating” value [1, 19] of the same compound?
A: 0

Q: What about the “Plant response rating (0 to 100), Soybean” value ([1]; Preemergence, 250 g ai/ha) of the same compound?
A: 85

Q: What about the “Soybean plant response rating” value [1, 20] of the same compound?
A: 5

Q: And the “Morningglory plant response rating” value [2, 18]?
A: 5

Q: What about the “Morningglory plant response rating” value [2, 19] of the same compound?
A: 98

Q: And the “Plant response rating (0 to 100), Morningglory” value ([2]; Preemergence, 250 g ai/ha)?
A: 100

Q: What about the “Morningglory plant response rating” value [2, 20] of the same compound?
A: 100

Q: And the “Surinam Grass plant response rating” value ([3]; 62 g ai/ha)?
A: 85

Q: What about the “Plant response rating (0 to 100), Surinam Grass” value ([3]; Preemergence, 250 g ai/ha) of the same compound?
A: 100

Q: And the “Surinam Grass plant response rating” value ([3]; 125 g ai/ha)?
A: 95

Q: And the “Lambsquarters plant response rating” value [4, 18]?
A: 30

Q: What about the “Lambsquarters plant response rating” value [4, 19] of the same compound?
A: 100

Q: And the “Plant response rating (0 to 100), Lambsquarters” value ([4]; Preemergence, 250 g ai/ha)?
A: 100

Q: And the “Lambsquarters plant response rating” value [4, 20]?
A: 100

Q: What about the “Plant response rating, Rice” value [5, 21] of the same compound?
A: 0

Q: And the “Plant response rating, Rice” value [5, 22]?
A: 0

Q: And the “Plant response rating, Rice” value [5, 23]?
A: 60

Q: What about the “Plant response rating, Rice” value [5, 24] of the same compound?
A: 70

Q: What about the “Johnsongrass plant response rating” value [6, 18] of the same compound?
A: 45

Q: And the “Johnsongrass plant response rating” value [6, 19]?
A: 60

Q: What about the “Plant response rating (0 to 100), Johnsongrass” value ([6]; Preemergence, 250 g ai/ha) of the same compound?
A: 100

Q: And the “Johnsongrass plant response rating” value [6, 20]?
A: 100

Q: And the “Bromegrass, Downy plant response rating” value [7, 18]?
A: 30

Q: What about the “Bromegrass, Downy plant response rating” value [7, 19] of the same compound?
A: 35

Q: What about the “Plant response rating (0 to 100), Bromegrass, Downy” value ([7]; Preemergence, 250 g ai/ha) of the same compound?
A: 70

Q: What about the “Bromegrass, Downy plant response rating” value [7, 20] of the same compound?
A: 70

Q: What about the “Plant response rating, Barnyardgrass” value [8, 21] of the same compound?
A: 0

Q: What about the “Plant response rating, Barnyardgrass” value [8, 22] of the same compound?
A: 0

Q: And the “Plant response rating, Barnyardgrass” value [8, 23]?
A: 60

Q: And the “Plant response rating, Barnyardgrass” value [8, 24]?
A: 100

Q: What about the “Corn plant response rating” value [9, 25] of the same compound?
A: 0

Q: And the “Corn plant response rating” value [9, 26]?
A: 50

Q: And the “Corn plant response rating” value [9, 27]?
A: 0

Q: And the “Plant response rating, Corn” value [9, 28]?
A: 70

Q: And the “Crabgrass, Large plant response rating” value [10, 18]?
A: 100

Q: What about the “Crabgrass, Large plant response rating” value [10, 19] of the same compound?
A: 100

Q: What about the “Plant response rating (0 to 100), Crabgrass, Large” value ([10]; Preemergence, 250 g ai/ha) of the same compound?
A: 100

Q: And the “Crabgrass, Large plant response rating” value [10, 20]?
A: 100

Q: What about the “Wheat plant response rating” value [11, 25] of the same compound?
A: 40

Q: And the “Wheat plant response rating” value [11, 26]?
A: 50

Q: And the “Wheat plant response rating” value [11, 27]?
A: 40

Q: What about the “Plant response rating, Wheat” value [11, 28] of the same compound?
A: 60

Q: What about the “Velvetleaf plant response rating” value [12, 25] of the same compound?
A: 0

Q: What about the “Velvetleaf plant response rating” value [12, 26] of the same compound?
A: 60

Q: What about the “Velvetleaf plant response rating” value [12, 27] of the same compound?
A: 0

Q: And the “Plant response rating, Velvetleaf” value [12, 28]?
A: 60

Q: What about the “Pigweed plant response rating” value [13, 18] of the same compound?
A: 100

Q: And the “Pigweed plant response rating” value [13, 19]?
A: 100

Q: And the “Plant response rating (0 to 100), Pigweed” value ([13]; Preemergence, 250 g ai/ha)?
A: 100

Q: What about the “Pigweed plant response rating” value [13, 20] of the same compound?
A: 100

Q: What about the “Bermudagrass plant response rating” value [14, 18] of the same compound?
A: 80

Q: And the “Bermudagrass plant response rating” value [14, 19]?
A: 100

Q: And the “Plant response rating (0 to 100), Bermudagrass” value ([14]; Preemergence, 250 g ai/ha)?
A: 100

Q: What about the “Bermudagrass plant response rating” value [14, 20] of the same compound?
A: 100

Q: And the “Galium plant response rating” value [15, 18]?
A: 0

Q: And the “Galium plant response rating” value [15, 19]?
A: 100

Q: What about the “Plant response rating (0 to 100), Galium” value ([15]; Preemergence, 250 g ai/ha) of the same compound?
A: 100

Q: And the “Galium plant response rating” value [15, 20]?
A: 100

Q: What about the “Foxtail, Giant plant response rating” value [16, 25] of the same compound?
A: 70

Q: What about the “Foxtail, Giant plant response rating” value [16, 26] of the same compound?
A: 80

Q: What about the “Foxtail, Giant plant response rating” value [16, 27] of the same compound?
A: 90

Q: And the “Plant response rating, Foxtail, Giant” value [16, 28]?
A: 100

Q: What about the “Foxtail, Giant plant response rating” value [17, 18] of the same compound?
A: 85

Q: And the “Foxtail, Giant plant response rating” value [17, 19]?
A: 85

Q: And the “Plant response rating (0 to 100), Foxtail, Giant” value ([17]; Preemergence, 250 g ai/ha)?
A: 100

Q: What about the “Foxtail, Giant plant response rating” value [17, 20] of the same compound?
A: 100
